Data reported in ChEMBL document CHEMBL4393685, “Synthesis and evaluation of pyrimidoindole analogs in umbilical cord blood ex vivo expansion” (Eur J Med Chem, 2019).

Columns and labels:
Format in all cases: functional
[1] = Stimulation of ex vivo expansion of human CD34+ cells assessed as CD34+CD38- level at 0.01 to 1 uM incubated for 7 days supplemented with 50% fresh medium containing cytokines every other day by flow cytometry (reference value: 19.10 +/- 0.35%)
[2] = Stimulation of ex vivo expansion of human CD34+ cells assessed as CD34+CD38- level incubated for 7 days supplemented with 50% fresh medium containing cytokines every other day by flow cytometry
[3] = Stimulation of ex vivo expansion of human CD34+ cells assessed as CD34+/CD38- level at 0.01 to 1 uM incubated for 7 days supplemented with 50% fresh medium containing cytokines every other day by flow cytometry relative to control
[4] = Ex vivo expansion of human CD34+ cells assessed as increase in CD34+ cell level after 5 to 7 days by […]
[5] = Stimulation of ex vivo expansion of human CD34+ cells assessed as CD34postive phenotypic levels after 7 days by carboxyfluorescein succinimidyl ester dye based assay
[6] = Homo sapiens, 168 h, read-out: EC50

| EC50 [2, 6] | EC50 [4] | Compound | Activity [1] | EC50 [2] | fold change (FC) [3] | Activity [5] |
| --- | --- | --- | --- | --- | --- | --- |
| – | – | Cn1nnc(-c2ccc3c(c2)[nH]c2nc(Cc4ccccc4)nc(NCCc4c[nH]c5ccccc45)c23)n1 | 19.73% | Nd(Toxic) | 1.03 | – |
| – | – | Cn1nnc(-c2ccc3[nH]c4nc(Cc5ccccc5)nc(NCCc5ccc(O)cc5)c4c3c2)n1 | 20.65% | Nd(Toxic) | 1.08 | – |
| 65.2 nM | – | COc1ccc(CCNc2nc(Cc3ccccc3)nc3[nH]c4ccc(-c5nnn(C)n5)cc4c23)cc1OC | 23.63% | – | 1.24 | – |
| 19.2 nM | – | Cc1cc(Cl)ccc1Nc1nc(Cc2ccccc2)nc2[nH]c3ccc(-c4nnn(C)n4)cc3c12 | 30.36% | – | 1.59 | – |
| 56.2 nM | – | C#Cc1cccc(Nc2nc(Cc3ccccc3)nc3[nH]c4ccc(-c5nnn(C)n5)cc4c23)c1 | 25.99% | – | 1.36 | – |
| – | – | Cn1nnc(-c2ccc3[nH]c4nc(Cc5ccccc5)nc(NCCO)c4c3c2)n1 | 18.99% | Nd(Toxic) | 0.99 | – |
| – | – | Cn1nnc(-c2ccc3[nH]c4nc(Cc5ccccc5)nc(N[C@H]5CC[C@H](N)CC5)c4c3c2)n1 | 18.72% | Nd(Toxic) | 0.98 | – |
| – | – | Cn1nnc(-c2ccc3[nH]c4nc(Cc5ccccc5)nc(NCc5ccccc5)c4c3c2)n1 | 23.92% | Nd(Toxic) | 1.25 | – |
| 26.2 nM | – | Cn1nnc(-c2ccc3[nH]c4nc(Cc5ccccc5)nc(NCCN(Cc5ccccn5)Cc5ccccn5)c4c3c2)n1 | 24.23% | – | 1.27 | – |
| 972 nM | – | Cn1nnc(-c2ccc3c(c2)[nH]c2nc(Cc4ccccc4)nc(NC4CCOCC4)c23)n1 | 30.87% | – | 1.62 | – |
| – | – | CN(C)c1nc(Cc2ccccc2)nc2[nH]c3cc(-c4nnn(C)n4)ccc3c12 | 15.91% | Nd(Toxic) | 0.83 | – |
| – | – | COc1ccc(CCNc2nc(Cc3ccccc3)nc3[nH]c4cc(-c5nnn(C)n5)ccc4c23)cc1 | 14.15% | Nd(Toxic) | 0.74 | – |
| – | – | Cc1ccc(Sc2nc(Cc3ccccc3)nc3[nH]c4ccc(-c5nnn(C)n5)cc4c23)cc1 | 25.53% | Nd(Toxic) | 1.34 | – |
| 473 nM | – | Cn1nnc(-c2ccc3c(c2)[nH]c2nc(Cc4ccccc4)nc(N[C@H]4CC[C@H](O)CC4)c23)n1 | 50.15% | – | 2.63 | – |
| – | – | Cn1nnc(-c2ccc3[nH]c4nc(Cc5ccccc5)nc(N[C@H]5CC[C@H](O)CC5)c4c3c2)n1 | 17.9% | Nd(Toxic) | 0.94 | – |
| – | – | Cn1nnc(-c2ccc3[nH]c4nc(Cc5ccccc5)nc(Nc5ccccc5)c4c3c2)n1 | 18.02% | Nd(Toxic) | 0.94 | – |
| 30 nM | – | COc1cc2c(cc1OC)CN(CCNc1nc(Cc3ccccc3)nc3[nH]c4ccc(-c5nnn(C)n5)cc4c13)CC2 | 21.93% | – | 1.27 | – |
| – | – | Cn1nnc(-c2ccc3[nH]c4nc(Cc5ccccc5)nc(Nc5ccc(F)c(Cl)c5)c4c3c2)n1 | 20.65% | Nd(Toxic) | 1.08 | – |
| 359 nM | – | Cn1nnc(-c2ccc3[nH]c4nc(Cc5ccccc5)nc(N5CCC(CO)CC5)c4c3c2)n1 | 20.29% | – | 1.06 | – |

| EC50 [2, 6] | EC50 [4] | Compound | Activity [1] | EC50 [2] | fold change (FC) [3] | Activity [5] |
| --- | --- | --- | --- | --- | --- | --- |
| 157 nM | – | Cn1nnc(-c2ccc3[nH]c4nc(Cc5ccccc5)nc(N5CCNCC5)c4c3c2)n1 | 24.69% | – | 1.29 | – |
| – | – | COc1ccc(CCNc2nc(Cc3ccccc3)nc3[nH]c4cc(-c5nnn(C)n5)ccc4c23)cc1OC | 37.07% | Nd(Toxic) | 1.94 | – |
| – | – | Cn1nnc(-c2ccc3[nH]c4nc(Cc5ccccc5)nc(Nc5cccc(Br)c5)c4c3c2)n1 | 22.63% | Nd(Toxic) | 1.19 | – |
| – | – | C#Cc1cccc(Nc2nc(Cc3ccccc3)nc3[nH]c4cc(-c5nnn(C)n5)ccc4c23)c1 | 16.98% | Nd(Toxic) | 0.89 | – |
| – | – | COc1ccc(CCNc2nc(Cc3ccccc3)nc3[nH]c4ccc(-c5nnn(C)n5)cc4c23)cc1 | 21.96% | Nd(Toxic) | 1.15 | – |
| – | – | Cn1nnc(-c2ccc3[nH]c4nc(Cc5ccccc5)nc(NCCNC(=O)c5ccc6ccccc6n5)c4c3c2)n1 | 20.89% | Nd(Toxic) | 1.09 | – |
| – | – | Cc1cc(Cl)ccc1Nc1nc(Cc2ccccc2)nc2[nH]c3cc(-c4nnn(C)n4)ccc3c12 | 15.37% | Nd(Toxic) | 0.8 | – |
| 167 nM | – | CC(O)CNc1nc(Cc2ccccc2)nc2[nH]c3ccc(-c4nnn(C)n4)cc3c12 (stereo not given) | 31.2% | – | 1.63 | – |
| – | – | COc1ccc(Nc2nc(Cc3ccccc3)nc3[nH]c4ccc(-c5nnn(C)n5)cc4c23)cc1 | 19.34% | Nd(Toxic) | 1.01 | – |
| 177 nM | – | Cn1nnc(-c2ccc3[nH]c4nc(Cc5ccccc5)nc(N5CCOCC5)c4c3c2)n1 | 17.32% | – | 0.91 | – |
| – | – | Cn1nnc(-c2ccc3[nH]c4nc(Cc5ccccc5)nc(Nc5ccc(N)cc5)c4c3c2)n1 | 22.01% | Nd(Toxic) | 1.15 | – |
| – | – | Cn1nnc(-c2ccc3c(c2)[nH]c2nc(Cc4ccccc4)nc(NCCc4ccc(O)cc4)c23)n1 | 18.2% | Nd(Toxic) | 0.95 | – |
| 59.2 nM | – | Cn1nnc(-c2ccc3[nH]c4nc(Cc5ccccc5)nc(N5CCCC(CO)C5)c4c3c2)n1 (stereo not given) | 22.2% | – | 1.16 | – |
| – | – | CNC(=O)c1ccc(Nc2nc(Cc3ccccc3)nc3[nH]c4ccc(-c5nnn(C)n5)cc4c23)cc1 | 21.83% | Nd(Toxic) | 1.14 | – |
| 27.7 nM | – | Cn1nnc(-c2ccc3[nH]c4nc(Cc5ccccc5)nc(NCCc5c[nH]c6ccccc56)c4c3c2)n1 | 21.72% | – | 1.14 | – |
| – | – | Cn1nnc(-c2ccc3c(c2)[nH]c2nc(Cc4ccccc4)nc(Nc4ccc(F)c(Cl)c4)c23)n1 | 15.79% | Nd(Toxic) | 0.83 | – |
| – | – | Cn1nnc(-c2ccc3[nH]c4nc(Cc5ccccc5)nc(NCCNC(=O)OC(C)(C)C)c4c3c2)n1 | 16.11% | Nd(Toxic) | 0.84 | – |
| – | 120 nM | CC(C)n1cnc2c(NCCc3ccc(O)cc3)nc(-c3csc4ccccc34)nc21 | – | – | – | 61% |
